{"source": "patent US11793815B2", "about": "“Oxindoles and methods of use thereof” (ALIGOS THERAPEUTICS, INC., priority 2020, dated 2023)", "data": [{"molecular_target": "T1, human thyroid receptor beta ligand-binding domain (LBD) (Homo sapiens, UniProt P10828)", "T1 construct": "Thyroid receptor beta LBD was added to the plate at a final concentration of 1 nM; purchased Invitrogen", "T1 sequence (P10828 217-461 limits assumed)": "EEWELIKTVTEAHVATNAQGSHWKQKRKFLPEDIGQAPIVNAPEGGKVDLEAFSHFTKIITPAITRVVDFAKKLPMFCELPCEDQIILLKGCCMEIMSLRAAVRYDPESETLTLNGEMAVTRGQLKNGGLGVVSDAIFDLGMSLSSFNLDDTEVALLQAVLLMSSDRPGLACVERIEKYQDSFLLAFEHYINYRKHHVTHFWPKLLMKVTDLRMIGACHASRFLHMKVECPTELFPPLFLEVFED", "test": "THR Biochemical Assay (Assay 1): TR-FRET thyroid receptor beta coactivator assay", "conditions": "GST-tagged thyroid receptor beta LBD 1 nM, fluorescein SRC2-2 coactivator peptide 200 nM, 1 hr at rt, TR-FRET ratio 520:495; read-out: Assay 1 (EC50, THR-beta agonist)", "from_the_text": "THR Biochemical Assay (Assay 1)\nThe TR-FRET thyroid receptor beta coactivator assay was used with slight, optimized modifications of the manufacturer's protocol (Invitrogen). The assay uses a terbium-labeled anti-GST antibody, a glutathione-S-transferase (GST) tagged human thyroid receptor, beta or alpha, ligand-binding domain (LBD), and a fluorescein labeled SRC2-2 coactivator peptide. The antibody interacts with the LBD, where the agonist also binds, resulting in increased affinity for the SRC2-2 coactivator peptide causing energy transfer […] the acceptor fluorophore and a FRET emission shift from 495 to 520 nm. The energy transfer was detected as an increase in the fluorescence emission of the fluorescein acceptor, and a decrease in the fluorescence emission of the terbium donor. The assay was performed in a 384-well black plate in a final volume of 20 μL. Serial dilution of various test agonists was performed in DMSO (1% final DMSO concentration) and added to the test plate. Thyroid receptor beta LBD was added to the plate at a final concentration of 1 nM, followed by the mixture of the fluorescein labeled SRC2-2 coactivator peptide, and the terbium-labeled anti-GST antibody at final concentrations of 200 nM and 2 nM respectively. The assay was incubated for 1 hr at rt protected from light. The TR-FRET was then measured on a Victor multilabel reader (Perkin Elmer) using an excitation wavelength of 340 nm with emission filters of 495 nm and 520 nm. The assay was quantified by expressing a ratio (520:495) of the intensities, and the resulting activation curves; EC50 values were generated using a sigmoidal dose response (variable slope) equation in GraphPad™ Prism 8.0.", "units": {"EC50": "nM"}, "values": [{"molecule": "O=C(Nc1cc(Cl)c(Oc2ccc3c(c2)C2(CC2)C(=O)N3)c(C(F)(F)F)c1)c1noc(=O)[nH]1", "note": "[Compound 44, N-(3-chloro-4-((2′-oxospiro[cyclopropane-1,3′-indolin]-5′-yl)oxy)-5-(trifluoromethyl)phenyl)-5-oxo-4,5-dihydro-1,2,4-oxadiazole-3-carboxamide]", "EC50": "< 50"}, {"molecule": "O=C(O)C(=O)Nc1cc(Cl)c(Oc2ccc3c(c2)C(F)(F)C(=O)N3)c(Cl)c1", "note": "[Compound 36, 2-((3,5-dichloro-4-((3,3-difluoro-2-oxoindolin-5-yl)oxy)phenyl)amino)-2-oxoacetic acid]", "EC50": "< 50"}, {"molecule": "Cc1cc(-n2nc(C#N)c(=O)[nH]c2=O)cc(C)c1Oc1ccc2c(c1)C1(CC1)C(=O)N2", "note": "[Compound 2, 2-(3,5-dimethyl-4-((2′-oxospiro[cyclopropane-1,3′-indolin]-5′-yl)oxy)phenyl)-3,5-dioxo-2,3,4,5-tetrahydro-1,2,4-triazine-6-carbonitrile]", "EC50": "< 50"}, {"molecule": "Cc1c(Oc2c(Cl)cc(-n3nc(N)c(=O)[nH]c3=O)cc2Cl)ccc2c1C1(CCC1)C(=O)N2", "note": "[Compound 18, 6-amino-2-(3,5-dichloro-4-((4′-methyl-2′-oxospiro[cyclobutane-1,3′-indolin]-5′-yl)oxy)phenyl)-1,2,4-triazine-3,5(2H,4H)-dione]", "EC50": "< 50"}, {"molecule": "Nc1nn(-c2cc(Cl)c(Oc3cc(F)c4c(c3)C3(CCC3)C(=O)N4)c(Cl)c2)c(=O)[nH]c1=O", "note": "[Compound 21, 6-amino-2-(3,5-dichloro-4-((7′-fluoro-2′-oxospiro[cyclobutane-1,3′-indolin]-5′-yl)oxy)phenyl)-1,2,4-triazine-3,5(2H,4H)-dione]", "EC50": "< 50"}, {"molecule": "Cc1cc(-n2nc(C#N)c(=O)[nH]c2=O)cc(C)c1Cc1ccc2c(c1)C1(CC(F)(F)C1)C(=O)N2", "note": "[Compound 7, 2-(4-((3,3-difluoro-2′-oxospiro[cyclobutane-1,3′-indolin]-5′-yl)methyl)-3,5-dimethylphenyl)-3,5-dioxo-2,3,4,5-tetrahydro-1,2,4-triazine-6-carbonitrile]", "EC50": "> 25000"}, {"molecule": "N#Cc1nn(-c2cc(Cl)c(Oc3ccc4c(c3)C3(CC(F)(F)C3)C(=O)N4)c(Cl)c2)c(=O)[nH]c1=O", "note": "[Compound 9, 2-(3,5-dichloro-4-((3,3-difluoro-2′-oxospiro[cyclobutane-1,3′-indolin]-5′-yl)oxy)phenyl)-3,5-dioxo-2,3,4,5-tetrahydro-1,2,4-triazine-6-carbonitrile]", "EC50": "< 50"}, {"molecule": "CC1CC12C(=O)Nc1ccc(Oc3c(Cl)cc(NC(=O)C(=O)O)cc3Cl)cc12", "note": "(single isomer, unassigned) [Compound 35, 2-((3,5-dichloro-4-((2-methyl-2′-oxospiro[cyclopropane-1,3′-indolin]-5′-yl)oxy)phenyl)amino)-2-oxoacetic acid]", "EC50": "< 50"}, {"molecule": "Cc1cc(OCC(=O)O)c(C)c(C)c1Cc1ccc2c(c1)C1(CC1)C(=O)N2", "note": "[Compound 20, 2-(2,3,5-trimethyl-4-((2′-oxospiro[cyclopropane-1,3′-indolin]-5′-yl)methyl)phenoxy)acetic acid]", "EC50": "< 50"}, {"molecule": "Cc1cc2c(cc1Oc1c(Cl)cc(-n3nc(N)c(=O)[nH]c3=O)cc1Cl)C1(CCC1)C(=O)N2", "note": "[Compound 19, 6-amino-2-(3,5-dichloro-4-((6′-methyl-2′-oxospiro[cyclobutane-1,3′-indolin]-5′-yl)oxy)phenyl)-1,2,4-triazine-3,5(2H,4H)-dione]", "EC50": "> 25000"}, {"molecule": "O=C(Nc1cc(Cl)c(Oc2ccc3c(c2Cl)C2(CC2)C(=O)N3)c(Cl)c1)c1noc(=O)[nH]1", "note": "[Compound 29, N-(3,5-dichloro-4-((4′-chloro-2′-oxospiro[cyclopropane-1,3′-indolin]-5′-yl)oxy)phenyl)-5-oxo-4,5-dihydro-1,2,4-oxadiazole-3-carboxamide]", "EC50": "< 50"}, {"molecule": "Cn1nc(-c2cc(Cl)c(Oc3ccc4c(c3F)C3(CC3)C(=O)N4)c(Cl)c2)c(=O)[nH]c1=O", "note": "[Compound 42, 6-(3,5-dichloro-4-((4′-fluoro-2′-oxospiro[cyclopropane-1,3′-indolin]-5′-yl)oxy)phenyl)-2-methyl-1,2,4-triazine-3,5(2H,4H)-dione]", "EC50": "< 50"}, {"molecule": "O=C1Nc2ccc(Oc3c(Cl)cc(-c4n[nH]c(=O)[nH]c4=O)cc3Cl)cc2C12CCC2", "note": "[Compound 15, 6-(3,5-dichloro-4-((2′-oxospiro[cyclobutane-1,3′-indolin]-5′-yl)oxy)phenyl)-1,2,4-triazine-3,5(2H,4H)-dione]", "EC50": "< 50"}, {"molecule": "Nc1nn(-c2cc(Cl)c(Oc3ccc4c(c3F)C3(CC3)C(=O)N4)c(Cl)c2)c(=O)[nH]c1=O", "note": "[Compound 41, 6-amino-2-(3,5-dichloro-4-((4′-fluoro-2′-oxospiro[cyclopropane-1,3′-indolin]-5′-yl)oxy)phenyl)-1,2,4-triazine-3,5(2H,4H)-dione]", "EC50": "< 50"}, {"molecule": "Cc1cc(Oc2c(Cl)cc(-n3nc(N)c(=O)[nH]c3=O)cc2Cl)cc2c1NC(=O)C21CCC1", "note": "[Compound 27, 6-amino-2-(3,5-dichloro-4-((7′-methyl-2′-oxospiro[cyclobutane-1,3′-indolin]-5′-yl)oxy)phenyl)-1,2,4-triazine-3,5(2H,4H)-dione]", "EC50": "< 50"}, {"molecule": "Cn1nc(-c2cc(Cl)c(Oc3ccc4c(c3Cl)C3(CC3)C(=O)N4)c(Cl)c2)c(=O)[nH]c1=O", "note": "[Compound 43, 6-(3,5-dichloro-4-((4′-chloro-2′-oxospiro[cyclopropane-1,3′-indolin]-5′-yl)oxy)phenyl)-2-methyl-1,2,4-triazine-3,5(2H,4H)-dione]", "EC50": "< 50"}, {"molecule": "Cc1cc(-n2nc(C#N)c(=O)[nH]c2=O)cc(C)c1Oc1ccc2c(c1)C1(CCC1)C(=O)N2", "note": "[Compound 3, 2-(3,5-dimethyl-4-((2′-oxospiro[cyclobutane-1,3′-indolin]-5′-yl)oxy)phenyl)-3,5-dioxo-2,3,4,5-tetrahydro-1,2,4-triazine-6-carbonitrile]", "EC50": "< 50"}, {"molecule": "Nc1nn(-c2cc(Cl)c(Oc3ccc4c(c3F)C3(CCC3)C(=O)N4)c(Cl)c2)c(=O)[nH]c1=O", "note": "[Compound 17, 6-amino-2-(3,5-dichloro-4-((4′-fluoro-2′-oxospiro[cyclobutane-1,3′-indolin]-5′-yl)oxy)phenyl)-1,2,4-triazine-3,5(2H,4H)-dione]", "EC50": "< 50"}, {"molecule": "O=C1Nc2ccc(Oc3c(Cl)cc(-n4ncc(=O)[nH]c4=O)cc3Cl)cc2C12CCC2", "note": "[Compound 5, 2-(3,5-dichloro-4-((2′-oxospiro[cyclobutane-1,3′-indolin]-5′-yl)oxy)phenyl)-1,2,4-triazine-3,5(2H,4H)-dione]", "EC50": "< 50"}, {"molecule": "Cc1c(Oc2c(Cl)cc(-n3nc(N)c(=O)[nH]c3=O)cc2Cl)ccc2c1C1(CC1)C(=O)N2", "note": "[Compound 38, 6-amino-2-(3,5-dichloro-4-((4′-methyl-2′-oxospiro[cyclopropane-1,3′-indolin]-5′-yl)oxy)phenyl)-1,2,4-triazine-3,5(2H,4H)-dione]", "EC50": "< 50"}, {"molecule": "Cc1cc(-n2nc(N)c(=O)[nH]c2=O)cc(C)c1Cc1ccc2c(n1)C(C)(C)C(=O)N2", "note": "[Compound 12, 6-amino-2-[4-({3,3-dimethyl-2-oxo-1H-pyrrolo[3,2-b]pyridin-5-yl}methyl)-3,5-dimethylphenyl]-4H-1,2,4-triazine-3,5-dione]", "EC50": "50 to 250"}, {"molecule": "Cc1cc(-n2nc(N)c(=O)[nH]c2=O)cc(C)c1Cc1ccc2c(c1)C1(CCC1)C(=O)N2", "note": "[Compound 4, 6-amino-2-(3,5-dimethyl-4-{2′-oxo-1′H-spiro[cyclobutane-1,3′-indol]-5′-ylmethyl}phenyl)-4H-1,2,4-triazine-3,5-dione]", "EC50": "< 50"}, {"molecule": "Nc1nn(-c2cc(Cl)c(Oc3ccc4c(c3Cl)C3(CC3)C(=O)N4)c(Cl)c2)c(=O)[nH]c1=O", "note": "[Compound 30, 6-amino-2-(3,5-dichloro-4-((4′-chloro-2′-oxospiro[cyclopropane-1,3′-indolin]-5′-yl)oxy)phenyl)-1,2,4-triazine-3,5(2H,4H)-dione]", "EC50": "< 50"}, {"molecule": "Cc1cc(OCC(=O)O)c(C)c(C)c1Cc1ccc2c(n1)C(C)(C)C(=O)N2", "note": "[Compound 1, 4-([3,3-dimethyl-2-oxo-1H-pyrrolo[3,2-b]pyridin-5-yl]methyl)-2,3,5-trimethylphenoxyacetic acid]", "EC50": "50 to 250"}, {"molecule": "CC1CC12C(=O)Nc1ccc(Oc3c(Cl)cc(-n4nc(N)c(=O)[nH]c4=O)cc3Cl)cc12", "note": "(centres unmarked) [Compound 33, 6-amino-2-(3,5-dichloro-4-((2-methyl-2′-oxospiro[cyclopropane-1,3′-indolin]-5′-yl)oxy)phenyl)-1,2,4-triazine-3,5(2H,4H)-dione]", "EC50": "< 50"}, {"molecule": "O=C(O)C(=O)Nc1cc(Cl)c(Oc2ccc3c(c2)C2(CCC2)C(=O)N3)c(Cl)c1", "note": "[Compound 13, 2-((3,5-dichloro-4-((2′-oxospiro[cyclobutane-1,3′-indolin]-5′-yl)oxy)phenyl)amino)-2-oxoacetic acid]", "EC50": "< 50"}]}]}
